Data as given in patent US11434222B2, “MAGL inhibitors” (H. LUNDBECK A/S, priority 2020, dated 2022).

Molecular target: T1, MAGL (Homo sapiens, UniProt Q99685)
T1 construct: PC3 human cell membrane proteomes; endogenous in cells; host or cells: PC3 human cells (membrane proteome)
T1 sequence (Q99685 1-303): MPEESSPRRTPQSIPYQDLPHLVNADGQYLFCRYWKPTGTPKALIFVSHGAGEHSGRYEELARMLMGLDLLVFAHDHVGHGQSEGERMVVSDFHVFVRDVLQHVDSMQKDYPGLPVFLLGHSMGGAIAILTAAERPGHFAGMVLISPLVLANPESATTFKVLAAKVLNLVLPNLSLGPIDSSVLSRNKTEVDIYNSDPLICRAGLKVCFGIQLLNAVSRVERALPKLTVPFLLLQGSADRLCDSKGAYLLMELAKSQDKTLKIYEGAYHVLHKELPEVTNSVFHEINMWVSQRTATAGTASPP
Experiment: In vitro competitive activity-based protein profiling (PC3 human cell membrane proteomes)
Assay type: biochemical
Settings: not given
Description: PC3 human cell membrane proteomes (50 µL, 2.0 mg/mL total protein concentration) were preincubated with varying concentrations of inhibitors at 37° C. After 30 min, the ABPP probe JW912-Bodipy (1.0 µL, 50 µM in DMSO) was added and the mixture was incubated for 30 min at room temperature. Reactions were quenched with SDS loading buffer (15 μL-4×) and run on SDS-PAGE. Following gel imaging, serine hydrolase activity was determined by measuring fluorescent intensity of gel bands corresponding to MAGL using ImageJ 1.43u software. Intensities were converted to percent enzyme activity by normalizing to DMSO controls. IC50 values were determined by fitting percent enzyme activities to a non-linear regression, 4-parameter, sigmoidal dose response function in Prism GraphPad.

Structure (SMILES)	MAGL % inh. 1 µM (human PC3) [%]
CN(C(=O)C1CC12CCN(C(=O)OC(C(F)(F)F)C(F)(F)F)CC2)c1ccccn1 (single isomer, unassigned) [Example 46, 1,1,1,3,3,3-hexafluoropropan-2-yl (R or S)-1-(methyl(pyridin-2-yl)carbamoyl)-6-azaspiro[2.5]octane-6-carboxylate]	100
O=C(Nc1ccccn1)C1CC12CCN(C(=O)OC(C(F)(F)F)C(F)(F)F)CC2 (single isomer, unassigned) [Example 49, 1,1,1,3,3,3-hexafluoropropan-2-yl (R or S)-1-(pyridin-2-ylcarbamoyl)-6-azaspiro[2.5]octane-6-carboxylate]	100
O=C(OC(C(F)(F)F)C(F)(F)F)N1CCC2(CC1)CC2C(=O)N1CCn2cc(C(F)(F)F)nc2C1 (single isomer, unassigned) [Example 52, 1,1,1,3,3,3-hexafluoropropan-2-yl (R or S)-1-(2-(trifluoromethyl)-5,6,7,8-tetrahydroimidazo[1,2-a]pyrazine-7-carbonyl)-6-azaspiro[2.5]octane-6-carboxylate]	100
O=C(Nc1cnccn1)C1CC12CCN(C(=O)OC(C(F)(F)F)C(F)(F)F)CC2 (single isomer, unassigned) [Example 55, 1,1,1,3,3,3-hexafluoropropan-2-yl (R or S)-1-(pyrazin-2-ylcarbamoyl)-6-azaspiro[2.5]octane-6-carboxylate]	100
O=C(OC(C(F)(F)F)C(F)(F)F)N1CCC2(CC1)CC2C(=O)N1CCc2cnc(C(F)(F)F)nc2C1 (single isomer, unassigned) [Example 58, 1,1,1,3,3,3-hexafluoropropan-2-yl (R or S)-1-(2-(trifluoromethyl)-5,6,7,8-tetrahydropyrido[3,4-d]pyrimidine-7-carbonyl)-6-azaspiro[2.5]octane-6-carboxylate]	100
O=C(OC(C(F)(F)F)C(F)(F)F)N1CCC2(CC1)CC2C(=O)N1CCc2ncncc2C1 (single isomer, unassigned) [Example 61, 1,1,1,3,3,3-hexafluoropropan-2-yl (R or S)-1-(5,6,7,8-tetrahydropyrido[4,3-d]pyrimidine-6-carbonyl)-6-azaspiro[2.5]octane-6-carboxylate]	75
O=C(OC(C(F)(F)F)C(F)(F)F)N1CCC2(CC1)CC2C(=O)N1CCc2nc(C3CC3)ncc2C1 (single isomer, unassigned) [Example 64, 1,1,1,3,3,3-hexafluoropropan-2-yl (R or S)-1-(2-cyclopropyl-5,6,7,8-tetrahydropyrido[4,3-d]pyrimidine-6-carbonyl)-6-azaspiro[2.5]octane-6-carboxylate]	100
O=C(Nc1cncc(Cl)c1)C1CC12CCN(C(=O)OC(C(F)(F)F)C(F)(F)F)CC2 (single isomer, unassigned) [Example 67, 1,1,1,3,3,3-hexafluoropropan-2-yl (R or S)-1-((5-chloropyridin-3-yl)carbamoyl)-6-azaspiro[2.5]octane-6-carboxylate]	100
Cc1ncccc1NC(=O)C1CC12CCN(C(=O)OC(C(F)(F)F)C(F)(F)F)CC2 (single isomer, unassigned) [Example 69, 1,1,1,3,3,3-hexafluoropropan-2-yl (R or S)-1-((2-methylpyridin-3-yl)carbamoyl)-6-azaspiro[2.5]octane-6-carboxylate]	100
Cc1ncccc1NC(=O)C1CC12CCN(C(=O)OC(C(F)(F)F)C(F)(F)F)CC2 (single isomer, unassigned) [Example 70, 1,1,1,3,3,3-hexafluoropropan-2-yl (R or S)-1-((2-methylpyridin-3-yl)carbamoyl)-6-azaspiro[2.5]octane-6-carboxylate]	75
O=C(Nc1cccc(C(F)(F)F)n1)C1CC12CCN(C(=O)OC(C(F)(F)F)C(F)(F)F)CC2 (single isomer, unassigned) [Example 73, 1,1,1,3,3,3-hexafluoropropan-2-yl (R or S)-1-((6-(trifluoromethyl)pyridin-2-yl)carbamoyl)-6-azaspiro[2.5]octane-6-carboxylate]	100
O=C(Nc1ccc(C(F)(F)F)nc1)C1CC12CCN(C(=O)OC(C(F)(F)F)C(F)(F)F)CC2 (single isomer, unassigned) [Example 79, 1,1,1,3,3,3-hexafluoropropan-2-yl (R or S)-1-((6-(trifluoromethyl)pyridin-3-yl)carbamoyl)-6-azaspiro[2.5]octane-6-carboxylate]	50
Cc1ccc(NC(=O)C2CC23CCN(C(=O)OC(C(F)(F)F)C(F)(F)F)CC3)cn1 (single isomer, unassigned) [Example 82, 1,1,1,3,3,3-hexafluoropropan-2-yl (R or S)-1-((6-methylpyridin-3-yl)carbamoyl)-6-azaspiro[2.5]octane-6-carboxylate]	100
O=C(Nc1cccnc1C(F)(F)F)C1CC12CCN(C(=O)OC(C(F)(F)F)C(F)(F)F)CC2 (single isomer, unassigned) [Example 85, 1,1,1,3,3,3-hexafluoropropan-2-yl (R or S)-1-((2-(trifluoromethyl)pyridin-3-yl)carbamoyl)-6-azaspiro[2.5]octane-6-carboxylate]	100
O=C(NCc1cccnc1)C1CC12CCN(C(=O)OC(C(F)(F)F)C(F)(F)F)CC2 (single isomer, unassigned) [Example 88, 1,1,1,3,3,3-hexafluoropropan-2-yl (R or S)-1-((pyridin-3-ylmethyl)carbamoyl)-6-azaspiro[2.5]octane-6-carboxylate]	100
O=C(NC(=O)C1CC12CCN(C(=O)OC(C(F)(F)F)C(F)(F)F)CC2)C1CCCCC1 (single isomer, unassigned) [Example 91, 1,1,1,3,3,3-hexafluoropropan-2-yl (R or S)-1-((cyclohexanecarbonyl)carbamoyl)-6-azaspiro[2.5]octane-6-carboxylate]	100
O=C(NC(=O)C1CC12CCN(C(=O)OC(C(F)(F)F)C(F)(F)F)CC2)c1ccccc1 (single isomer, unassigned) [Example 94, 1,1,1,3,3,3-hexafluoropropan-2-yl (R or S)-1-(benzoylcarbamoyl)-6-azaspiro[2.5]octane-6-carboxylate]	100

Test system: not listed separately
Experiment: Kinetic solubility in PBS
Assay type: physicochemical
Settings: aqueous buffer, kinetic from dmso stock, PBS pH 2.0, RT, read-out: pH 2 Solubility (kinetic)
Description: The kinetic solubility of test articles was determined in PBS at pH 2.0 and pH 7.4 in duplicate. A stock solution of test compound in DMSO (10 mM) was incubated at RT for 2 hours with shaking at 1,100 RPM. The sample was then filtered using a vacuum manifold, diluted, and analyzed by LC-MS/MS. Chromatographic conditions: Phenomenex Synergi 4μ Hydro-PR 80A column (2.0×30 mm) coupled with pre-guard column; mobile phase=0.1% formic acid in acetonitrile and 0.1% formic acid in water; flowrate=0.65 mL/min; column temperature=40° C.; injection volume: 3 μL.
Mass conditions: Turbo spray ion source; ESI ionization model; MRM scan type; Collison gas=6 L/min; Curtain gas=30 L/min; Nebulize gas=50 L/min; Auxiliary gas=50 L/min; Temperature=500 degrees C.; Ion spray voltage=+5500 v (positive MRM).
The filtered solution was analyzed and quantified against a standard of known concentration in DMSO using UPLC coupled with mass spectral peak identification and quantitation. Solubility values of the test articles were calculated using Microsoft Excel as follows (DF is the dilution factor): […]

Structure (SMILES)	solubility kinetic at 2 h [µM]
O=C(NC(=O)C1CC12CCN(C(=O)OC(C(F)(F)F)C(F)(F)F)CC2)C1CCCCC1 (single isomer, unassigned) [Example 90, 1,1,1,3,3,3-hexafluoropropan-2-yl (R or S)-1-((cyclohexanecarbonyl)carbamoyl)-6-azaspiro[2.5]octane-6-carboxylate]	33

Same assay, conditions: aqueous buffer, kinetic from dmso stock, PBS pH 7.4, RT, read-out: pH 7.4 Solubility (kinetic)

Structure (SMILES)	solubility kinetic at 2 h [µM]
O=C(Nc1ccnc(C(F)(F)F)n1)[C@H]1CC12CCN(C(=O)OC(C(F)(F)F)C(F)(F)F)CC2 (single isomer, unassigned) [Example 17]	0.07
O=C(Nc1cncc(Cl)c1)C1CC12CCN(C(=O)OC(C(F)(F)F)C(F)(F)F)CC2 (single isomer, unassigned) [Example 66, 1,1,1,3,3,3-hexafluoropropan-2-yl (R or S)-1-((5-chloropyridin-3-yl)carbamoyl)-6-azaspiro[2.5]octane-6-carboxylate]	8.74
